Measurements as given in US20130197032A1, “[…] COMPOUNDS FOR THE TREATMENT OF NEUROLOGICAL AND […] DISORDERS” (A. CARLSSON RESEARCH AB, priority 2010, published 2013).

Legend:
human 5-HT7 receptor = target: T1, human 5-HT7 receptor (Homo sapiens, UniProt P34969); test: R-SAT assay 5-HT7; format: cell-based; details: Table 3, 5-HT7; percent response of reference 5-CT
T1 construct: expressed in transfected cells; host or cells: NIH/3T3

[1] = target: human D4 (variant 4.2) receptor (Homo sapiens, UniProt P21917, DEL265-296); format: cell-based
Sequence of human D4 (variant 4.2) receptor (P21917 with tags, fused parts or gaps DEL265-296): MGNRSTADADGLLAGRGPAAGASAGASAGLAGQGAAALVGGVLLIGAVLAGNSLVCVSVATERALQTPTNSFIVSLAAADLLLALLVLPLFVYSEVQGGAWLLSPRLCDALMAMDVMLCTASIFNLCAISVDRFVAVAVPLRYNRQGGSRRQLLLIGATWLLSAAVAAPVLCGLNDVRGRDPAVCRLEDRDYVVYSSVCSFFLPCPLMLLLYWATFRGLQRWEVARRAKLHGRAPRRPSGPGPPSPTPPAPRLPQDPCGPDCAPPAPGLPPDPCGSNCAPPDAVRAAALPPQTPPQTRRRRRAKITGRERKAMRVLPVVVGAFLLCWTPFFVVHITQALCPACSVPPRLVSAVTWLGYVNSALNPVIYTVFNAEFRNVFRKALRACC

human D5 receptor = target: T2, human D5 receptor (Homo sapiens, UniProt P21918); test: R-SAT assay D5; format: cell-based; details: Table 3, D5; percent response of reference SKF 38393
T2 construct: expressed in transfected cells; host or cells: NIH-3T3 (inferred: R-SAT host; D5 is in neither method list of b200)
T2 sequence (P21918 whole entry): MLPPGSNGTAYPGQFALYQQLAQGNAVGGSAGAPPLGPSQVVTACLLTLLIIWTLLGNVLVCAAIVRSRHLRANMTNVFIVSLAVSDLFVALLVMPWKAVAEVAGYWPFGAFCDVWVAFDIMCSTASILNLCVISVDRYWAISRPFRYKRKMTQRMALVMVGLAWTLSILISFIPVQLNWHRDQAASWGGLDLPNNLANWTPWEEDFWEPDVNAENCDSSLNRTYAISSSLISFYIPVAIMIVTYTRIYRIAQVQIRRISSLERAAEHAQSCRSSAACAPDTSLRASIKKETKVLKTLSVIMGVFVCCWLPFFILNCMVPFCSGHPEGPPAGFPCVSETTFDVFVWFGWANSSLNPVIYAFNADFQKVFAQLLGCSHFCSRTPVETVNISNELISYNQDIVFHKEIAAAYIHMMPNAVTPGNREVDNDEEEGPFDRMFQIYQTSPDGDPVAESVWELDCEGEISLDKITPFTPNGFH

human M5 receptor = target: T3, human M5 receptor (Homo sapiens, UniProt P08912); test: R-SAT assay M5; format: cell-based; details: Table 3, M5; percent response of reference Carbachol
T3 construct: expressed in transfected cells; host or cells: NIH/3T3 cells, transient transfection, pSI vector
T3 sequence (P08912 whole entry): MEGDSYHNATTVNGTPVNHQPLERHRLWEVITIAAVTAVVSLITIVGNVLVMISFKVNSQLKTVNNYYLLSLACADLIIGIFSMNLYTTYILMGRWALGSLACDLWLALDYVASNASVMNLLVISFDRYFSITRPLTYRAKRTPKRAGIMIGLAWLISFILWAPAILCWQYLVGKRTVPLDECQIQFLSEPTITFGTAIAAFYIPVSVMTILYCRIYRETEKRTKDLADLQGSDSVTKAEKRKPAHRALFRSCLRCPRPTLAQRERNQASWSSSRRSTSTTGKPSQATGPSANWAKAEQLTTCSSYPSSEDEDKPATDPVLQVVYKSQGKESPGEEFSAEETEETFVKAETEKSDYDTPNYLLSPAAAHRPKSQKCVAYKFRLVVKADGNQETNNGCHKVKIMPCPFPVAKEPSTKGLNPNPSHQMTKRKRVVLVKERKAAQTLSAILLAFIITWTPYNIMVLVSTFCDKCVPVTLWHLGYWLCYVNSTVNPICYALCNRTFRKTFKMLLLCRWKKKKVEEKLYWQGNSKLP

dopamine D2/D3 receptors = details: read-out: Ki, affinity for dopamine D2/D3 receptors; in vitro binding studies, background; cited from earlier work
5-HT2B receptors = 5-HT2B receptors (Homo sapiens, UniProt P41595); test: PI hydrolysis assay on 5-HT2B receptors
Sequence of 5-HT2B receptors (P41595 whole entry): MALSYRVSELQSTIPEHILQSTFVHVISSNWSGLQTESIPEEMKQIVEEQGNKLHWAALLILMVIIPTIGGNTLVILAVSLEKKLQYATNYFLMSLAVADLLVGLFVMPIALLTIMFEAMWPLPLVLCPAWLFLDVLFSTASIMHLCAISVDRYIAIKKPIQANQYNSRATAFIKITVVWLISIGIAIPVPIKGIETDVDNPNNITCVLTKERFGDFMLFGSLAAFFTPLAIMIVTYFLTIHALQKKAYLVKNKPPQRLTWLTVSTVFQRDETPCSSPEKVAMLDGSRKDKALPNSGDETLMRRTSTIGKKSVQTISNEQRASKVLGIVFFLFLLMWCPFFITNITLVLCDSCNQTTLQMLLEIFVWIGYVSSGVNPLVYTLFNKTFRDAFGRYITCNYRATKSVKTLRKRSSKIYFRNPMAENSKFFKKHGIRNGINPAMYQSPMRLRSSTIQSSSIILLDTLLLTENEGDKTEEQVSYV
Experimental: After lysing the cells with 50 μl of 0.1M formic acid, 20 μl each cell lysate was mixed with 80 μl (1 mg) RNA Binding YSi-SPA beads (GE Healthcare, Chalfont St. Giles, UK) on PICO plates (PerkinElmer) and counted on a TopCount (Packard).

D2 receptors = D2 receptors (Homo sapiens, UniProt P14416); test: BRET2 functional antagonism of dopamine at D2 (Schild analysis); format: cell-based; set-up: expressed in transfected cells; host or cells: HEK-293T
Sequence of D2 receptors (P14416 1-414 isoform P14416-2): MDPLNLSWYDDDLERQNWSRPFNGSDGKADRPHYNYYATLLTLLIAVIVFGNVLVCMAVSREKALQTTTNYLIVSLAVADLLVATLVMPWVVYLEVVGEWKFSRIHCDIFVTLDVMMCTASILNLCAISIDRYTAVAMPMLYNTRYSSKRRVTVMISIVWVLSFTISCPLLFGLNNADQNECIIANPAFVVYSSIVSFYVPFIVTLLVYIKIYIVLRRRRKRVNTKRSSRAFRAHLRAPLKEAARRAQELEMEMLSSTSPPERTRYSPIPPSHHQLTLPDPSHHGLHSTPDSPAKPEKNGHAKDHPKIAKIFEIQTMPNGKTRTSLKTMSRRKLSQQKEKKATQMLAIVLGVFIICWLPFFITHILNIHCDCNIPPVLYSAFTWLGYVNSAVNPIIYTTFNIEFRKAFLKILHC
Experimental: BRET-2 signals were measured using the multiplate reader Mithras 940LB (Berthold Technologies, Bad Wildbad, Germany) and were calculated as the ratio between the Renilla luciferase emission and the GFP2 emission corrected by the background emissions of non-transfected cells.
A Schild plot (B) was constructed using the EC50 values derived from the curves in (A). The Schild plot was fitted using linear regression in GraphPad Prizm.

[2] = Sonesson's thesis 1995; cited from earlier work

T1 sequence (P34969 whole entry): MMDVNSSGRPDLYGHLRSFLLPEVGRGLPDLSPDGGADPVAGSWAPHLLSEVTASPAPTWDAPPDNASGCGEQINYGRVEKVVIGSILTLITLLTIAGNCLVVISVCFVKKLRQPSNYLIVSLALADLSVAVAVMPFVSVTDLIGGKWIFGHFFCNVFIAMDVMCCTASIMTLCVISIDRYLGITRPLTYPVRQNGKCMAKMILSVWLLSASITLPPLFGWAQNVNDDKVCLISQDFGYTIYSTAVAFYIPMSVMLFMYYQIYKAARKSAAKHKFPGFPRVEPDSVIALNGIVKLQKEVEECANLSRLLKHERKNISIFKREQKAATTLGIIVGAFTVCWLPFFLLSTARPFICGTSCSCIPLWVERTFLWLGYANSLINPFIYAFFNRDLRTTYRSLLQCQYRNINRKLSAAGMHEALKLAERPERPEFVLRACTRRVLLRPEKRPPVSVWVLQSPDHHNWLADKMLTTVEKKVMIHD

## CCCN1CCC[C@@H](c2cccc(S(C)(=O)=O)c2)C1 [(−)-OSU6162, (3S)-3-[3-(methylsulfonyl)phenyl]-1-propylpiperidine]
Human 5-HT7 receptor
  Eff (%): 7%
[1]
  Eff (%): 40%
Human D5 receptor
  Eff (%): 10%
Human M5 receptor
  Eff (%): −5%
Dopamine D2/D3 receptors
  Ki: 447 nM
5-HT2B receptors
  EC50: 631 nM
5-HT2B receptors; data not shown
  efficacy in PI hydrolysis assays on 5-HT2B receptors: 24%
D2 receptors; functional antagonism of dopamine in BRET2 assays
  slope of the Schild analysis: nearly unity
D2 receptors; read-out: pKb from the Schild analysis (converted)
  Kb: 1260 nM

## CCCN1CCC[C@H](c2cccc(S(C)(=O)=O)c2)C1 [(+)-OSU6162, (3R)-3-[3-(methylsulfonyl)phenyl]-1-propylpiperidine]
[2]
  change in behavioral activity: not to induce any change in behavioral activity
